{"source": "ChEMBL document CHEMBL4673331", "about": "(J Med Chem, 2020)", "key": {"TMD8": {"tested_on": "TMD8", "experiment": "Antitumor activity against human TMD8 cells xenografted in SCID mouse assessed as tumor stasis at 100 mg/kg, po BID administered for 2 weeks", "type": "functional, organism-based"}, "[1]": {"experiment": "Dose normalized AUC (0 to 24 hrs) in Balb/c mouse at 3 mg/kg, po administered as cassette dosing", "type": "ADME, organism-based", "conditions": "in vivo"}, "[2]": {"experiment": "Volume of distribution at steady state in Sprague-Dawley rat at 1 mg/kg, iv administered as cassette dosing", "type": "ADME, organism-based", "conditions": "in vivo, read-out: Vdss"}, "[3]": {"experiment": "Oral bioavailability in Sprague-Dawley rat at 3 mg/kg administered as cassette dosing", "type": "ADME, organism-based", "conditions": "in vivo"}, "[4]": {"experiment": "Half-life in Sprague-Dawley rat at 1 mg/kg, iv administered as cassette dosing", "type": "ADME, organism-based", "conditions": "in vivo"}, "[5]": {"experiment": "Dose normalized AUC (0 to 24 hrs) in Sprague-Dawley rat at 3 mg/kg, po administered as cassette dosing", "type": "ADME, organism-based", "conditions": "in vivo"}, "BMDM": {"tested_on": "BMDM", "experiment": "Cytotoxicity against mouse Bone marrow-derived macrophage cells assessed as reduction in cell viability by [3H]-thymidine incorporation assay", "type": "cell-based"}, "Mus musculus [6]": {"tested_on": "Mus musculus", "experiment": "Anti-autoimmune disease activity in Balb/c mouse assessed as reduction in anti-DNP induced IgM producing B cells at 30 mg/kg, po administered twice at 12 hrs interval immunized post 1 hr first treatment measured after 8 days by ELISA relative to control", "type": "functional", "parameters": "scale not given: the % may be the effect or the level left", "conditions": "time 8 day"}, "[7]": {"experiment": "Dose normalized Cmax in Sprague-Dawley rat at 3 mg/kg, po administered as cassette dosing", "type": "ADME, organism-based", "conditions": "in vivo"}, "[8]": {"experiment": "Protein binding in mouse plasma", "type": "ADME, cell-free", "conditions": "read-out: PPB (converted)"}, "[9]": {"experiment": "Drug concentration in Balb/c mouse blood at 10 mg/kg, po BID by LC-MS/MS analysis", "type": "ADME, organism-based", "conditions": "in vivo, read-out: Drug uptake"}, "Mus musculus [10]": {"tested_on": "Mus musculus", "experiment": "Anti-autoimmune disease activity in Balb/c mouse assessed as reduction in anti-DNP induced IgG producing B cells at 30 mg/kg, po administered twice at 12 hrs interval immunized post 1 hr first treatment measured after 8 days by ELISA relative to control", "type": "functional, organism-based", "conditions": "time 8.0 day"}, "[11]": {"experiment": "Drug concentration in Balb/c mouse blood at 30 mg/kg, po BID by LC-MS/MS analysis", "type": "ADME, organism-based", "conditions": "in vivo, read-out: Drug uptake"}, "[12]": {"experiment": "Toxicity in Balb/c mouse assessed as histopathological changes at 10 to 100 mg/kg, po BID administered at 12 hrs interval immunized post 1 hr first treatment", "type": "organism-based", "conditions": "in vivo, dose 10-100 mg/kg"}, "OCI-Ly3 [13]": {"tested_on": "OCI-Ly3", "experiment": "Antiproliferation activity against human OCI-LY3 cells assessed as reduction in cell viability incubated for 14 days by resazurin dye-based fluorescence analysis", "type": "functional", "conditions": "OCI-Ly3, 336 h"}, "[14]": {"experiment": "Toxicity in Balb/c mouse assessed as change in body weight at 10 to 100 mg/kg, po BID administered at 12 hrs interval immunized post 1 hr first treatment", "type": "organism-based", "conditions": "in vivo, dose 10-100 mg/kg"}, "[15]": {"experiment": "Drug concentration in Balb/c mouse blood at 30 mg/kg, po BID administered at 12 hrs interval immunized post 1 hr first treatment measured after 12 hrs post second dose by LC-MS/MS analysis", "type": "ADME, organism-based", "conditions": "whole blood, read-out: Drug uptake"}, "[16]": {"experiment": "Dose normalized Cmax in Balb/c mouse at 3 mg/kg, po administered as cassette dosing", "type": "ADME, organism-based", "conditions": "in vivo"}, "[17]": {"experiment": "Tmax in human TMD8 cells xenografted SCID mouse at 100 mg/kg, po qd by UPLC-MS/MS analysis", "type": "ADME, organism-based", "conditions": "in vivo"}, "[18]": {"experiment": "Drug concentration in Balb/c mouse blood at 100 mg/kg, po BID by LC-MS/MS analysis", "type": "ADME, organism-based", "conditions": "in vivo, read-out: Drug uptake"}, "[19]": {"biological_target": "Baculoviral IAP repeat-containing protein 3/Mucosa-associated lymphoid tissue lymphoma translocation protein 1 (Homo sapiens, UniProt Q13489+Q9UDY8)", "sequence (Q13489 whole entry, one chain of several, the tested form may be a part)": "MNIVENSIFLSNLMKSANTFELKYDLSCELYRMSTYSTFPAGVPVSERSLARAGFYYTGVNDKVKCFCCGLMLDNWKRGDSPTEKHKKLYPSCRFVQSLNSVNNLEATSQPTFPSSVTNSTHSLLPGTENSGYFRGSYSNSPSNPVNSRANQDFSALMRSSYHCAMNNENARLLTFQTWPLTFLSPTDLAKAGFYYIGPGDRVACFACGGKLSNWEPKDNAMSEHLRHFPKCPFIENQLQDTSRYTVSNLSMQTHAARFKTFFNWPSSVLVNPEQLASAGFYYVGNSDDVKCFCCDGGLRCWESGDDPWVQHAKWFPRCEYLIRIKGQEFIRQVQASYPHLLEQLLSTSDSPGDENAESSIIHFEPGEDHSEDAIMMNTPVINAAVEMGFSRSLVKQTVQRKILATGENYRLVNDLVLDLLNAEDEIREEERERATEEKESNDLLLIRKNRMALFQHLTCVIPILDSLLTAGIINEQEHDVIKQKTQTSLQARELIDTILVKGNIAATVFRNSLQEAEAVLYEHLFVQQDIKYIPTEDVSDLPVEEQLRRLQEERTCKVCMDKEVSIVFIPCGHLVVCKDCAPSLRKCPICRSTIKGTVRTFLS", "experiment": "Allosteric inhibition of MALT1-cIAP2 (unknown origin) fusion protein expressed in HEK293 cells assessed as reduction in NF-KappaB activation by luciferase reporter gene assay", "type": "cell-based"}, "[20]": {"biological_target": "T1, Mucosa-associated lymphoid tissue lymphoma translocation protein 1 (Homo sapiens, UniProt Q9UDY8)", "T1 sequence (Q9UDY8 whole entry)": "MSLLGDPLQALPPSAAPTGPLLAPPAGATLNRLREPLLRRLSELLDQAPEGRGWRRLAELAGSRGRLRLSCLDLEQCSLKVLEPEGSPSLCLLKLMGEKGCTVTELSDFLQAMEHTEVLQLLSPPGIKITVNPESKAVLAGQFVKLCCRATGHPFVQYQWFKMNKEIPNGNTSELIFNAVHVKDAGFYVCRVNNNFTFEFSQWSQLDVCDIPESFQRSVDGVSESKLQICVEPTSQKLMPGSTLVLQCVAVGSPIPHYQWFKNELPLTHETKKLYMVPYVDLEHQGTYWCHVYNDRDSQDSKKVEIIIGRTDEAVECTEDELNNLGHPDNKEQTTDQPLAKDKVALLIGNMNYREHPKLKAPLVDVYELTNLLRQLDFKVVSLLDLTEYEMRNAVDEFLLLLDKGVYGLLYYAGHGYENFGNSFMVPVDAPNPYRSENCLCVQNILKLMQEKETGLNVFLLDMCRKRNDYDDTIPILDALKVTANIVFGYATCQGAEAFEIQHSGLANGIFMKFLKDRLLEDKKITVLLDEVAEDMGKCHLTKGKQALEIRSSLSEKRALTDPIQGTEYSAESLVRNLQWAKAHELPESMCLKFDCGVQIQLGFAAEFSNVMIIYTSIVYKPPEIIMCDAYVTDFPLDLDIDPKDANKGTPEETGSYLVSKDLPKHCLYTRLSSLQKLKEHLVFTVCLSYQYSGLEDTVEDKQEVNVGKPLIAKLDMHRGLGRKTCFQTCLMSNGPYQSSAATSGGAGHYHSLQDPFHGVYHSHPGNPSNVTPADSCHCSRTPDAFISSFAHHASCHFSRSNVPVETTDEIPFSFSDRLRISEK", "experiment": "Allosteric inhibition of MALT1 in human OCI-LY3 cells assessed as reduction in BCL10 cleavage measured after 24 hrs by ELISA", "type": "cell-based, OCILY3"}, "OCI-Ly3 [21]": {"tested_on": "OCI-Ly3", "experiment": "Antiproliferative activity against human OCI-LY3 cells assessed as assessed as reduction in colony formation incubated for 14 days by soft-agar assay", "type": "functional, cell-based", "conditions": "dose 19.5-10000 nM, time 14.0 day"}, "[22]": {"biological_target": "T2, Mucosa-associated lymphoid tissue lymphoma translocation protein 1 (Homo sapiens) (UniProt Q9UDY8)", "T2 sequence (whole entry)": "T1 sequence (Q9UDY8 whole entry)", "experiment": "Allosteric inhibition of MALT1 in human OCI-LY3 cells assessed as repression of IRF4 at 50 to 5000 nM incubated for 24 hrs by Western blot analysis", "type": "cell-based", "conditions": "OCILY3, filed as negative allosteric modulator, dose 50-5000 nM"}, "[23]": {"experiment": "Volume of distribution at steady state in Balb/c mouse at 1 mg/kg, iv administered as cassette dosing", "type": "ADME, organism-based", "conditions": "in vivo, read-out: Vdss"}, "[24]": {"experiment": "Inhibition of mixed lymphocyte reaction in human PBMC cells assessed as reduction in [3H]-thymidine incorporation measured after 5 days in presence of Il-7 by microbeta counting method", "type": "functional, cell-based"}, "Mus musculus [25]": {"tested_on": "Mus musculus", "experiment": "Immunomodulatory activity in human TMD8 cells xenografted po dosed SCID mouse assessed as increase in levels of uncleaved BCL10 in tumor administered twice daily for 2 weeks", "type": "functional, organism-based", "conditions": "dose mg/kg 10-100, time 2.0 weeks"}, "[26]": {"experiment": "Toxicity in Balb/c mouse assessed as behavioral changes at 10 to 100 mg/kg, po BID administered at 12 hrs interval immunized post 1 hr first treatment", "type": "organism-based", "conditions": "in vivo, dose 10-100 mg/kg"}}, "note": "Activity calls are given as the source filed them. No cut-off for these calls is given here."}
{"smiles": "C[C@H]1COC[C@H](C)N1c1c(NC(=O)Nc2ccnc(C(F)(F)F)c2)cnc2cc(Cl)nn12", "values": [{"measurement": "Activity", "setting": "TMD8", "result": "Active"}, {"measurement": "AUC/dose", "setting": "[1]", "result": 3100, "unit": "nM·h"}, {"measurement": "Vd", "setting": "[2]", "result": 9.4, "unit": "L/kg"}, {"measurement": "bioavailability", "setting": "[3]", "result": 61, "unit": "%"}, {"measurement": "half-life", "setting": "[4]", "result": 3.2, "unit": "h"}, {"measurement": "AUC/dose", "setting": "[5]", "result": 547, "unit": "nM·h"}, {"measurement": "IC50", "setting": "BMDM", "result": "> 10000", "unit": "nM"}, {"measurement": "Activity", "setting": "Mus musculus [6]", "result": 25, "unit": "%"}, {"measurement": "Cmax/dose", "setting": "[7]", "result": 46, "unit": "nM"}, {"measurement": "fraction unbound", "setting": "[8]", "result": 0.011}, {"measurement": "concentration", "setting": "[9]", "result": 2600, "unit": "nM"}, {"measurement": "Activity", "setting": "Mus musculus [10]", "result": "Active"}, {"measurement": "concentration", "setting": "[11]", "result": 9300, "unit": "nM"}, {"measurement": "Activity", "setting": "[12]", "result": "Non-Toxic"}, {"measurement": "IC50", "setting": "OCI-Ly3 [13]", "result": "> 10000", "unit": "nM"}, {"measurement": "Activity", "setting": "[14]", "result": "Non-Toxic"}, {"measurement": "concentration at 12 h", "setting": "[15]", "result": 120, "unit": "nM"}, {"measurement": "Cmax/dose", "setting": "[16]", "result": 549, "unit": "nM"}, {"measurement": "Tmax", "setting": "[17]", "result": 2, "unit": "h"}, {"measurement": "concentration", "setting": "[18]", "result": 23600, "unit": "nM"}, {"measurement": "IC50", "setting": "[19]", "result": 140, "unit": "nM"}, {"measurement": "IC50", "setting": "[20]", "result": 160, "unit": "nM"}, {"measurement": "Activity", "setting": "OCI-Ly3 [21]", "result": "Dose-dependent effect"}, {"measurement": "inhibition", "setting": "[22]", "result": "Active"}, {"measurement": "Vd", "setting": "[23]", "result": 1.5, "unit": "L/kg"}, {"measurement": "IC50", "setting": "[24]", "result": 190, "unit": "nM"}, {"measurement": "Activity", "setting": "Mus musculus [25]", "result": "Dose-dependent effect"}, {"measurement": "Activity", "setting": "[26]", "result": "Non-Toxic"}]}
